The numbers were not newly measured in PMC2787808 (Peptides, 2009), which cites them from elsewhere.

One data set deals with HT-29 cells. The note with it: ref [2].
Data set [1] concerns G17-Gly binding sites on DLD-1 cells. The note with it: previous study; ref [11].

Regarding “pGlu-Gly-Pro-Trp-Leu-(Glu)5-Ala-Tyr [G17(1–12)]”, the “Stimulation of proliferation of HT-29 cells” value in the data set on HT-29 cells was “stimulates nonbiphasic proliferation”. For the same substance, the “Binding sites and affinity on DLD-1 cells” value in data set [1] was “binds to two sites”.
